Source: the supplement of paper PMC9663587

Experiments:
THZ1 = compound: CN(C)C/C=C/C(=O)Nc1ccc(C(=O)Nc2cccc(Nc3ncc(Cl)c(-c4c[nH]c5ccccc45)n3)c2)cc1 [THZ1]; assay: GR value, 72 h; higher = faster growth (1 = untreated, <0 = killing);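 also: breast cancer and non-malignant breast epithelial lines, nine half-log doses, viable cells counted by Hoechst and LIVE/DEAD dye imaging versus time-zero plates and DMSO controls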
[1] = compound: CCc1cnn2c(NCc3ccc[n+]([O-])c3)cc(N3CCCC[C@H]3CCO)nc12; assay: as above
LEE011/Ribociclib = compound: CN(C)C(=O)c1cc2cnc(Nc3ccc(N4CCNCC4)cn3)nc2n1C1CCCC1 [LEE011/Ribociclib]; assay: as above
[2] = compound: CCN1CCN(Cc2ccc(Nc3ncc(F)c(-c4cc(F)c5nc(C)n(C(C)C)c5c4)n3)nc2)CC1; assay: as above
THZ531 [3] = compound: T1, CN(C)C/C=C/C(=O)Nc1ccc(C(=O)N2CCC[C@@H](Nc3ncc(Cl)c(-c4c[nH]c5ccccc45)n3)C2)cc1 [THZ531]; assay: as above
YKL-5-124 = compound: C=CC(=O)Nc1ccc(C(=O)Nc2[nH]nc3c2CN(C(=O)N[C@H](CN(C)C)c2ccccc2)C3(C)C)cc1 [YKL-5-124]; assay: as above
[4] = compound: CC(=O)c1c(C)c2cnc(Nc3ccc(N4CCNCC4)cn3)nc2n(C2CCCC2)c1=O; assay: as above
BSJ-03-123 = compound: CC(=O)c1c(C)c2cnc(Nc3ccc(N4CCN(CCOCCOCCOCCNC(=O)COc5cccc6c5C(=O)N(C5CCC(=O)NC5=O)C6=O)CC4)cn3)nc2n(C2CCCC2)c1=O [BSJ-03-123]; assay: as above
senexin b = compound: CN1CCN(C(=O)c2ccc3cc(CCNc4ncnc5ccc(C#N)cc45)ccc3c2)CC1 [senexin b]
Tivantinib/ARQ197 = compound: O=C1NC(=O)[C@@H](c2cn3c4c(cccc24)CCC3)[C@@H]1c1c[nH]c2ccccc12 [Tivantinib/ARQ197]
Ceritinib/LDK378 = compound: Cc1cc(Nc2ncc(Cl)c(Nc3ccccc3S(=O)(=O)C(C)C)n2)c(OC(C)C)cc1C1CCNCC1 [Ceritinib/LDK378]
Pictilisib/GDC0941 = compound: CS(=O)(=O)N1CCN(Cc2cc3nc(-c4cccc5[nH]ncc45)nc(N4CCOCC4)c3s2)CC1 [Pictilisib/GDC0941]
Paclitaxel = compound: CC(=O)O[C@H]1C(=O)[C@@]2(C)[C@H]([C@H](OC(=O)c3ccccc3)[C@]3(O)C[C@H](OC(=O)[C@H](O)[C@@H](NC(=O)c4ccccc4)c4ccccc4)C(C)=C1C3(C)C)[C@]1(OC(C)=O)CO[C@@H]1C[C@@H]2O [Paclitaxel]
BSJ-01-175 = compound: CN(C)C/C=C/C(=O)Nc1ccc(O[C@@H]2CCC[C@@H](Nc3ncc(Cl)c(-c4c[nH]c5ccccc45)n3)C2)cc1 [BSJ-01-175]
THZ531 [5] = compound: T1, THZ531
Rucaparib = compound: CNCc1ccc(-c2[nH]c3cc(F)cc4c3c2CCNC4=O)cc1 [Rucaparib]
AZD6738 = compound: C[C@@H]1COCCN1c1cc(C2([S@](C)(=N)=O)CC2)nc(-c2cc[nH]c3nccc2-3)n1 [AZD6738]
Cediranib/AZD2171 = compound: COc1cc2c(Oc3ccc4[nH]c(C)cc4c3F)ncnc2cc1OCCCN1CCCC1 [Cediranib/AZD2171]
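For GR50, 72 h in this document: breast cancer and non-malignant breast epithelial cell lines, Deep Dye Drop or Dye Drop imaging, nine half-log doses, GR normalized to time-zero plates and DMSO-only controls.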

CAL51 gave a GR value (THZ1; 0.0001 µM) of 1.05 GR, a GR value (THZ1; 0.0003162 µM) of 0.971 GR and a GR value (THZ1; 0.001 µM) of 0.953 GR. It also gave a GR value (THZ1; 0.003162 µM) of 0.953 GR, a GR value (THZ1; 0.01 µM) of 0.938 GR and a GR value (THZ1; 0.03162 µM) of 0.882 GR. The GR value (THZ1; 0.1 µM) was 0.871 GR, the GR value (THZ1; 0.3162 µM) was 0.601 GR and the GR value (THZ1; 1 µM) was 0.0924 GR. It also gave a GR value ([1]; 0.0001 µM) of 0.999 GR, a GR value ([1]; 0.0003162 µM) of 0.954 GR and a GR value ([1]; 0.001 µM) of 1.03 GR. For the same cell line, the GR value ([1]; 0.003162 µM) was 0.974 GR, the GR value ([1]; 0.01 µM) was 0.831 GR and the GR value ([1]; 0.03162 µM) was -0.218 GR. For the same cell line, the GR value ([1]; 0.1 µM) was -0.356 GR, the GR value ([1]; 0.3162 µM) was -0.355 GR and the GR value ([1]; 1 µM) was -0.341 GR. For the same cell line, the GR value (LEE011/Ribociclib; 0.001 µM) was 0.899 GR, the GR value (LEE011/Ribociclib; 0.003162 µM) was 0.874 GR and the GR value (LEE011/Ribociclib; 0.01 µM) was 0.808 GR. For the same cell line, the GR value (LEE011/Ribociclib; 0.03162 µM) was 0.772 GR, the GR value (LEE011/Ribociclib; 0.1 µM) was 0.693 GR and the GR value (LEE011/Ribociclib; 0.3162 µM) was 0.658 GR. The GR value (LEE011/Ribociclib; 1 µM) was 0.631 GR, the GR value (LEE011/Ribociclib; 3.162 µM) was 0.55 GR and the GR value (LEE011/Ribociclib; 10 µM) was 0.396 GR. The GR value ([2]; 0.001 µM) was 0.966 GR, the GR value ([2]; 0.003162 µM) was 0.882 GR and the GR value ([2]; 0.01 µM) was 0.752 GR. The GR value ([2]; 0.03162 µM) was 0.569 GR, the GR value ([2]; 0.1 µM) was 0.501 GR and the GR value ([2]; 0.3162 µM) was 0.365 GR. For the same cell line, the GR value ([2]; 1 µM) was 0.207 GR, the GR value ([2]; 3.162 µM) was -0.124 GR and the GR value ([2]; 10 µM) was -0.46 GR. It also gave a GR value (THZ531 [3]; 0.0001 µM) of 0.973 GR, a GR value (THZ531 [3]; 0.0003162 µM) of 0.962 GR and a GR value (THZ531 [3]; 0.001 µM) of 0.912 GR. The GR value (THZ531 [3]; 0.003162 µM) was 0.96 GR, the GR value (THZ531 [3]; 0.01 µM) was 1.01 GR and the GR value (THZ531 [3]; 0.03162 µM) was 0.937 GR. It also gave a GR value (THZ531 [3]; 0.1 µM) of 0.904 GR, a GR value (THZ531 [3]; 0.3162 µM) of 0.786 GR and a GR value (THZ531 [3]; 1 µM) of 0.543 GR. It also gave a GR value (YKL-5-124; 0.001 µM) of 0.748 GR, a GR value (YKL-5-124; 0.003162 µM) of 0.59 GR and a GR value (YKL-5-124; 0.01 µM) of 0.391 GR. The GR value (YKL-5-124; 0.03162 µM) was 0.327 GR, the GR value (YKL-5-124; 0.1 µM) was 0.314 GR and the GR value (YKL-5-124; 0.3162 µM) was 0.236 GR. The GR value (YKL-5-124; 1 µM) was 0.216 GR, the GR value (YKL-5-124; 3.162 µM) was 0.165 GR and the GR value (YKL-5-124; 10 µM) was -0.0011 GR. For the same cell line, the GR value ([4]; 0.0003162 µM) was 0.968 GR, the GR value ([4]; 0.001 µM) was 1.02 GR and the GR value ([4]; 0.003162 µM) was 0.982 GR. The GR value ([4]; 0.01 µM) was 0.911 GR, the GR value ([4]; 0.03162 µM) was 0.783 GR and the GR value ([4]; 0.1 µM) was 0.646 GR. The GR value ([4]; 0.3162 µM) was 0.516 GR, the GR value ([4]; 1 µM) was 0.446 GR and the GR value ([4]; 3.162 µM) was 0.354 GR. For the same cell line, the GR value (BSJ-03-123; 0.001 µM) was 0.894 GR, the GR value (BSJ-03-123; 0.003162 µM) was 0.912 GR and the GR value (BSJ-03-123; 0.01 µM) was 0.915 GR. The GR value (BSJ-03-123; 0.03162 µM) was 0.898 GR, the GR value (BSJ-03-123; 0.1 µM) was 0.895 GR and the GR value (BSJ-03-123; 0.3162 µM) was 0.818 GR. It also gave a GR value (BSJ-03-123; 1 µM) of 0.763 GR, a GR value (BSJ-03-123; 3.162 µM) of 0.76 GR and a GR value (BSJ-03-123; 10 µM) of 0.121 GR. For the same cell line, the “GR50, 72 h” value (senexin b) was greater than 10 µM, the “GR50, 72 h” value (Tivantinib/ARQ197) was 0.588 µM and the “GR50, 72 h” value (Ceritinib/LDK378) was 0.475 µM. For the same cell line, the “GR50, 72 h” value (Pictilisib/GDC0941) was 2.89 µM, the “GR50, 72 h” value (Paclitaxel) was 0.00417 µM and the “GR50, 72 h” value (BSJ-01-175) was 0.432 µM. The “GR50, 72 h” value (THZ531 [5]) was greater than 1 µM, the “GR50, 72 h” value (Rucaparib) was greater than 10 µM and the “GR50, 72 h” value (AZD6738) was 5.34 µM. For the same cell line, the “GR50, 72 h” value (Cediranib/AZD2171) was 3.05 µM.
